Assay results: ChEMBL document CHEMBL1131434, “Identification of an opioid kappa receptor subtype-selective N-substituent for (+)-(3R,4R)-dimethyl-4-(3-hydroxyphenyl)piperidine” (J Med Chem, 1998)

Assays:
[1] = biological target: T1, Kappa-type opioid receptor (Cavia porcellus, UniProt P41144); test: Binding affinity determined on Opioid receptor kappa 1 in Guinea pig brain membranes using radioligand [3H]U-69593; type: cell membranes, Membrane
Mu-type opioid receptor [2] = biological target: T2, Mu-type opioid receptor (Cavia porcellus, UniProt P97266); test: Binding affinity determined on Opioid receptor mu 1 in Guinea pig brain membranes using radioligand [3H]DAMGO.; type: cell membranes, Membrane
[3] = biological target: Kappa-type opioid receptor (Cavia porcellus) (UniProt P41144); test: Inhibition against Opioid receptor kappa 1 using selective ligand [3H]U-69593; set-up: concentration or dose not given beside the values; conditions: concentration not given here
[4] = biological target: T1, Kappa-type opioid receptor; test: Inhibition of [35S]GTP-gamma-S, binding from Opioid receptor kappa 1 in Guinea pig Caudate stimulated by U69,593; type: functional
Mu-type opioid receptor [5] = biological target: T2, Mu-type opioid receptor; test: Binding affinity determined on Opioid receptor mu 1 in Guinea pig brain membranes using radioligand [3H]DAMGO; type: cell membranes, Membrane
Mu-type opioid receptor [6] = biological target: T2, Mu-type opioid receptor; test: Inhibition of [35S]GTP-gamma-S, binding from Opioid receptor mu 1 in Guinea pig Caudate stimulated by DAMGO; type: functional

Sequence of Kappa-type opioid receptor (Cavia porcellus) (P41144 whole entry): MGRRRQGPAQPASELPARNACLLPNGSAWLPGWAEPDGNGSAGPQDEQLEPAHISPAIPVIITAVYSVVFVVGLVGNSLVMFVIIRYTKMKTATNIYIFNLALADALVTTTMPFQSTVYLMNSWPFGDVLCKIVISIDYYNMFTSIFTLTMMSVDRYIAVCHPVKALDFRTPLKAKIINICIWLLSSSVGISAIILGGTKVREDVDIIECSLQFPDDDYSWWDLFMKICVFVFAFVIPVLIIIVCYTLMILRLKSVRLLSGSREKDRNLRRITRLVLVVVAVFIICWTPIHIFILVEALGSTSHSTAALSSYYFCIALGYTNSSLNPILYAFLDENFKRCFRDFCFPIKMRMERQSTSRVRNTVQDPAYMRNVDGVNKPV
T1 sequence (P41144 whole entry): as above
T2 sequence (P97266 whole entry): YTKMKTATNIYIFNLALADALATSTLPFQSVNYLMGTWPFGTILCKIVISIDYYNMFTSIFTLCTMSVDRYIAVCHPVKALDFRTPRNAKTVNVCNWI

Row | SMILES | inhibition [3] [%] | other results
1 | CC1CN(C[C@@H](NC(=O)CCc2ccc(O)cc2)C2CCCCC2)CCC1(C)c1cccc(O)c1 (some centres not stated) |  | Ki [1]: 83.1 nM; Ki (Mu-type opioid receptor [2]): 234 nM
2 | CC(CN1CCC(C)(c2cccc(O)c2)C(C)C1)N(C)C(=O)CCc1ccc(O)cc1 (configuration not stated) | 1 | 
3 | CC(C)[C@H](CN1CC[C@@](C)(c2cccc(O)c2)[C@@H](C)C1)NC(=O)CCc1ccc(O)cc1 | 11 | 
4 | CC(C)C(CN1CCC(C)(c2cccc(O)c2)C(C)C1)NC(=O)Cc1ccc(O)cc1 (configuration not stated) | 6 | 
5 | CC1CN(CCNC(=O)CCc2ccc(O)cc2)CCC1(C)c1cccc(O)c1 (configuration not stated) | 11 | 
6 | CC1CN(C[C@H](Cc2ccccc2)NC(=O)CCc2ccc(O)cc2)CCC1(C)c1cccc(O)c1 (some centres not stated) |  | Ki (Mu-type opioid receptor [2]): 9.6 nM
7 | COc1ccc(CCC(=O)NC(CN2CCC(C)(c3cccc(O)c3)C(C)C2)C(C)C)cc1 (configuration not stated) | 16 | 
8 | CC1CN(CC(c2ccccc2)N(C)C(=O)CCc2ccc(O)cc2)CCC1(C)c1cccc(O)c1 (configuration not stated) | 7 | 
9 | CCC(C)[C@@H](CN1CCC(C)(c2cccc(O)c2)C(C)C1)NC(=O)CCc1ccc(O)cc1 (some centres not stated) |  | Ki [1]: 8.84 nM; Ki (Mu-type opioid receptor [2]): 421 nM
10 | COc1cc(CCC(=O)NC(CN2CCC(C)(c3cccc(O)c3)C(C)C2)C(C)C)ccc1O (configuration not stated) | 42 | 
11 | C[C@@H]1CN(C/C=C/c2ccccc2)CC[C@]1(C)c1cccc(O)c1 |  | Ki [4]: 1.04 nM; Ki (Mu-type opioid receptor [5]): 0.74 nM; Ki [1]: 122 nM; Ki (Mu-type opioid receptor [6]): 0.039 nM
12 | CC(C)C(CN1CCC(C)(c2cccc(O)c2)C(C)C1)NC(=O)CCc1ccc(F)cc1 (configuration not stated) | 26 | 
13 | Oc1ccc2c3c1O[C@H]1c4[nH]c5c(c4C[C@@]4(O)[C@@H](C2)N(CC2CC2)CC[C@]314)C[C@@]1(O)[C@H]2Cc3ccc(O)c4c3[C@@]1(CCN2CC1CC1)[C@H]5O4 [NORBINALTORPHIMINE] |  | Ki (Mu-type opioid receptor [6]): 16.7 nM
14 | CC(C)[C@@H](CN1CC[C@@](C)(c2cccc(O)c2)[C@@H](C)C1)NC(=O)CCc1ccccc1 | 28 | 
15 | CC(C)C(CN1CCC(C)(c2cccc(O)c2)C(C)C1)NC(=O)CCc1ccccc1O (configuration not stated) | 25 | 
16 | CC(CN1CCC(C)(c2cccc(O)c2)C(C)C1)NC(=O)CCc1ccc(O)cc1 (configuration not stated) | 20 | 
17 | CC(C)C(CN1CCC(C)(c2cccc(O)c2)C(C)C1)NC(=O)CCc1ccc(O)c(O)c1 (configuration not stated) | 31 | 
18 | CC(C)C(CN1CCC(C)(c2cccc(O)c2)C(C)C1)NC(=O)/C=C/c1ccc(O)cc1 (configuration not stated) | 15 | 
19 | CC1CN(CCN(C)C(=O)CCc2ccc(O)cc2)CCC1(C)c1cccc(O)c1 (configuration not stated) | 0 | 
20 | CC(C)C[C@@H](CN1CCC(C)(c2cccc(O)c2)C(C)C1)NC(=O)CCc1ccc(O)cc1 (some centres not stated) |  | Ki (Mu-type opioid receptor [5]): 398 nM
21 | CC(C)[C@@H](CN1CC[C@@](C)(c2cccc(O)c2)[C@@H](C)C1)NC(=O)CCc1ccc(O)cc1 | 71 | Ki [4]: 4.7 nM; Ki (Mu-type opioid receptor [5]): 393 nM; Ki [1]: 6.91 nM; Ki (Mu-type opioid receptor [6]): 7.25 nM
22 | CC(C)C(CN1CCC(C)(c2cccc(O)c2)C(C)C1)NC(=O)CCc1cccc(O)c1 (configuration not stated) | 20 | 
23 | C[S+](C)[O-] | 4 | 
